Measurements as given in patent US9637472B2, “Substituted 6,5-fused bicyclic heteroaryl compounds” (Epizyme, Inc., priority 2011, dated 2017).
pIC50: −log10 of the molar value. Read-outs that look alike come from different tables or passages of the source.

Target: EZH2 (Homo sapiens (Human), UniProt Q15910)
Assay: PRC2 enzyme assay on peptide substrates
Format: biochemical
Excerpt: General Materials. S-adenosylmethionine (SAM), S-adenosylhomocyteine (SAH), bicine, KCl, Tween20, dimethylsulfoxide (DMSO) and bovine skin gelatin (BSG) were purchased from Sigma-Aldrich at the highest level of purity possible. Dithiothreitol (DTT) was purchased from EMD. ^3H-SAM was purchased from American Radiolabeled Chemicals with a specific activity of 80 Ci/mmol. 384-well streptavidin Flashplates were purchased from PerkinElmer.
Substrates. […] The sequences are listed below.
Recombinant PRC2 Enzymes. Human PRC2 enzymes were purified as 4-component enzyme complexes co-expressed in Spodoptera frugiperda (sf9) cells using a baculovirus expression system. The subunits expressed were wild-type EZH2 (NM_004456) or EZH2 Y641F, N, H, S or C mutants generated from the wild-type EZH2 construct, EED (NM_003797), Suz12 (NM_015355) and RbAp48 (NM_005610). The EED subunit contained an N-terminal FLAG tag that was used to purify the entire 4-component complex from sf9 cell lysates.
General Procedure for PRC2 Enzyme Assays on Peptide Substrates. The assays were all performed in a buffer consisting of 20 mM bicine (pH=7.6), 0.5 mM DTT, 0.005% BSG and 0.002% Tween20, prepared on the day of use. […] DMSO (1 μL) was added to columns 11, 12, 23, 24, rows A-H for the maximum signal control, and SAH, a known product and inhibitor of PRC2 (1 μL) was added to columns 11, 12, 23, 24, rows I-P for the minimum signal control. A cocktail (40 μL) containing the wild-type PRC2 enzyme and H3K27me0 peptide or any of the Y641 mutant enzymes and H3K27me2 peptide was added by Multidrop Combi (Thermo). The compounds were allowed to incubate with PRC2 for 30 min at 25° C., then a cocktail (10 μL) containing a mixture of non-radioactive and ^3H-SAM was added to initiate the reaction (final volume=51 μL). […] The assays were stopped by the addition of non-radioactive SAM (10 μL) to a final concentration of 600 μM, which dilutes the ^3H-SAM to a level where its incorporation into the peptide substrate is no longer detectable. 50 μL of the reaction in the 384-well polypropylene plate was then transferred to a 384-well Flashplate and the biotinylated peptides were allowed to bind to the streptavidin surface for at least 1 h before being washed three times with 0.1% Tween20 in a Biotek ELx405 plate washer. The plates were then read in a PerkinElmer TopCount platereader to measure the quantity of ^3H-labeled peptide bound to the Flashplate surface, measured as disintegrations per minute (dpm) or alternatively, referred to as counts per minute (cpm).
Where dpm=disintegrations per minute, cmpd=signal in assay well, and min and max are the respective minimum and maximum signal controls.
Where top and bottom are the normally allowed to float, but may be fixed at 100 or 0 respectively in a 3-parameter fit. The Hill Coefficient normally allowed to float but may also be fixed at 1 in a 3-parameter fit. Y is the % inhibition and X is the compound concentration.

[1] = PRC2 enzyme assays on peptide substrates, 4 nM enzyme, 30 min preincubation at 25° C., read-out: EZH2 IC50

Chain of EZH2 (Q15910 other isoform, or with tags, fused parts or gaps): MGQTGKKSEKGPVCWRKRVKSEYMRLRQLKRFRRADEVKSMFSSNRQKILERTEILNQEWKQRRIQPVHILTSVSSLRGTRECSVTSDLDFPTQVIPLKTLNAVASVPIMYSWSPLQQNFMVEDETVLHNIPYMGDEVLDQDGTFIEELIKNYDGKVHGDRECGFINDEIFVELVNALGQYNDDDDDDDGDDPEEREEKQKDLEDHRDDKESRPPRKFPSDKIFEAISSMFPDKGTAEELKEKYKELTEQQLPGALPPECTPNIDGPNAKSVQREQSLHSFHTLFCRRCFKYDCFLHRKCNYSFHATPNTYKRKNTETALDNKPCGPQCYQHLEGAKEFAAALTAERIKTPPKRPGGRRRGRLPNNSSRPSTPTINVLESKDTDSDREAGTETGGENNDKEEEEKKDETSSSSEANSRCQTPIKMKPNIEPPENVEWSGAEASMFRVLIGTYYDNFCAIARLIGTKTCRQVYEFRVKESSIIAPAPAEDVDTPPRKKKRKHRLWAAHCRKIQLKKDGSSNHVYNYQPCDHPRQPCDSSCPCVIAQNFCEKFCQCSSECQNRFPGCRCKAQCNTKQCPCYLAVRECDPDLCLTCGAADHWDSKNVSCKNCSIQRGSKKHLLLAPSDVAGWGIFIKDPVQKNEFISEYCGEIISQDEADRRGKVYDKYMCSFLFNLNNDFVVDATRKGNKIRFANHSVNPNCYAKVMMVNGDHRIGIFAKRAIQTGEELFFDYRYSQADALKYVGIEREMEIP
Chain of EZH2 (O75530 whole entry partner): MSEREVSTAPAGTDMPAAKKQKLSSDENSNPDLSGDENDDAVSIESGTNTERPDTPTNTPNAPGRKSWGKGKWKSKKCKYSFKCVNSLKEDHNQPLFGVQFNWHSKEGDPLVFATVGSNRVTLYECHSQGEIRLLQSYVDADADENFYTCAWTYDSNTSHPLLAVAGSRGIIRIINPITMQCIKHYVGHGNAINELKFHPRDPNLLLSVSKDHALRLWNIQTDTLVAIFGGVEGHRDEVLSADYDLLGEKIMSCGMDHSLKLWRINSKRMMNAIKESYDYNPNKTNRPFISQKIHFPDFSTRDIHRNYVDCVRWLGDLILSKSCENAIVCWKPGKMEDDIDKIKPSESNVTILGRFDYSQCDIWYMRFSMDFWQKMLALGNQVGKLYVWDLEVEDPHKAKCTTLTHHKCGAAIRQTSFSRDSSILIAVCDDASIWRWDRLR
Chain of EZH2 (Q15022 whole entry partner): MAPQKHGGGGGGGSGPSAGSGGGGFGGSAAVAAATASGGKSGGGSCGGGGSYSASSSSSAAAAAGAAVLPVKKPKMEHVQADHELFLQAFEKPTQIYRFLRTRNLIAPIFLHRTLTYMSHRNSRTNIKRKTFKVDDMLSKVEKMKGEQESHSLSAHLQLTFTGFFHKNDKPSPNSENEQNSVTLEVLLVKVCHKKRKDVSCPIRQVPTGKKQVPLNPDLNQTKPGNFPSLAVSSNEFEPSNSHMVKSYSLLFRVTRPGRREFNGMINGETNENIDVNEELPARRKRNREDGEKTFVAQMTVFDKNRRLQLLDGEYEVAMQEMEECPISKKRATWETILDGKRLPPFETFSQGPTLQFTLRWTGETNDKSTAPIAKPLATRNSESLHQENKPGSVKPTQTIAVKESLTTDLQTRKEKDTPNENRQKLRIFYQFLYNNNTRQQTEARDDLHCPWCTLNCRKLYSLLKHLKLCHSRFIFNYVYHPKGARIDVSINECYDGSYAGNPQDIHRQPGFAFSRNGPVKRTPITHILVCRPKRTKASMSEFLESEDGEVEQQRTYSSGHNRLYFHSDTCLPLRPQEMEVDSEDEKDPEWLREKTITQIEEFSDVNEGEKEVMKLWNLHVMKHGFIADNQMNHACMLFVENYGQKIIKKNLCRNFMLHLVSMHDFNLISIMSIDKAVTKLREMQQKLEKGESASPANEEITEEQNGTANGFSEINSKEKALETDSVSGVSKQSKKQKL
Chain of EZH2 (Q09028 whole entry partner): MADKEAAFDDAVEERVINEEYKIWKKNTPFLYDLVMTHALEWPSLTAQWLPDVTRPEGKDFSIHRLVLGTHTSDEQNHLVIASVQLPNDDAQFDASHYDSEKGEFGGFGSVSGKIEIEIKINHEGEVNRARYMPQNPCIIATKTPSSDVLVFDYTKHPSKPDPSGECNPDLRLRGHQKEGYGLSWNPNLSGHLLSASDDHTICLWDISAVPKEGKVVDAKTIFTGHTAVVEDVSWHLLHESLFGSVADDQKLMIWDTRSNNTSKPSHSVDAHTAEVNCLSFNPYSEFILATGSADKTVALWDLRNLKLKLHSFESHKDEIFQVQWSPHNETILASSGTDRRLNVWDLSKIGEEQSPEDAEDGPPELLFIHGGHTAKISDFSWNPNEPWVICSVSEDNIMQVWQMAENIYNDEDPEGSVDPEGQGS

| SMILES | pIC50 [1] | pIC50 |
| --- | --- | --- |
| Cc1cc(C)c(CNC(=O)c2cc(C3=CC(C)(C)NC(C)(C)C3)nc3c2cnn3C2CCCC2)c(=O)[nH]1 [Compound B-5, 1-cyclopentyl-N-((4,6-dimethyl-2-oxo-1,2-dihydropyridin-3-yl)methyl)-6-(2,2,6,6-tetramethyl-1,2,3,6-tetrahydropyridin-4-yl)-1H-pyrazolo[3,4-b]pyridine-4-carboxamide] | > 6.52 |  |
| Cc1cc(C)c(CNC(=O)c2cc(Cl)cc3c2cnn3C2CCN(C(=O)C(C)(C)C)CC2)c(=O)[nH]1 [Compound D-24] | > 6.52 |  |
| Cc1cc(C)c(CNC(=O)c2cc(-c3cccc(CN(C)C)c3)nc3c2cnn3C(C)C)c(=O)[nH]1 [Compound A-3, N-((4,6-dimethyl-2-oxo-1,2-dihydropyridin-3-yl)methyl)-6-(3-((dimethylamino)methyl)phenyl)-1-isopropyl-1H-pyrazolo[3,4-b]pyridine-4-carboxamide] | 6.00 to 6.52 |  |
| Cc1cc(C)c(CNC(=O)c2cc(-c3cccc(CN4CCN(C)CC4)c3)cc3c2cnn3C(C)C)c(=O)[nH]1 [Compound C-24] | > 6.52 |  |
| Cc1cc(C)c(CNC(=O)c2cc(C3=CCN(C)CC3)nc3c2cnn3C(C)C)c(=O)[nH]1 [Compound B-75] |  | 6.00 to 6.52 |
| Cc1cc(C)c(CNC(=O)c2cc(C(=O)N(C)CCN(C)C)nc3c2cnn3C(C)C)c(=O)[nH]1 [Compound B-133] | 5.00 to 5.52 |  |
| CC(=O)Nc1cc(C(=O)NCc2c(C)cc(C)[nH]c2=O)c2cnn(C(C)C)c2n1 [Compound B-121] | 5.52 to 6.00 |  |
| Cc1cc(C)c(CNC(=O)c2cc(C3CCN(C4CCN(CCS(C)(=O)=O)CC4)CC3)nc3c2cnn3C(C)C)c(=O)[nH]1 [Compound B-55] | 6.00 to 6.52 |  |
| Cc1cc(C)c(CNC(=O)c2cc(-c3cccnc3N3CCNCC3)nc3c2cnn3C(C)C)c(=O)[nH]1 [Compound A-66] | 5.52 to 6.00 |  |
| Cc1cc(CO)c(CNC(=O)c2cccc3c2cnn3C2CCCC2)c(=O)[nH]1 [Compound D-88] | 4.30 to 5.00 |  |
| CC(=O)c1cc(C(=O)NCc2c(C)cc(C)[nH]c2=O)c2cnn(C(C)C)c2n1 [Compound B-17, 6-acetyl-N-((4,6-dimethyl-2-oxo-1,2-dihydropyridin-3-yl)methyl)-1-isopropyl-1H-pyrazolo[3,4-b]pyridine-4-carboxamide] | 5.52 to 6.00 |  |
| Cc1cc(CN2CCN(C)CC2)c(CNC(=O)c2cccc3c2cnn3C2CCCC2)c(=O)[nH]1 [Compound D-74] | 5.52 to 6.00 |  |
| Cc1cc(C)c(CNC(=O)c2cc(C3=CC(C)(C)NC(C)(C)C3)nc3c2cnn3C2C=CCCC2)c(=O)[nH]1 (stereo not drawn) [Compound B-103] | 5.52 to 6.00 |  |
| Cc1cc(C)c(CNC(=O)c2cc(C3=CC(C)(C)NC(C)(C)C3)nc3c2cnn3CCC#N)c(=O)[nH]1 [Compound B-144] | 5.00 to 5.52 |  |
| CCc1cc(C(=O)NCc2c(C)cc(C)[nH]c2=O)c2cnn(C3CCCC3)c2c1 [Compound D-60] | 6.00 to 6.52 |  |
| Cc1cc(C)c(CNC(=O)c2c(Cl)c(-c3ccc4c(c3)OCCO4)cc3c2cnn3C(C)C)c(=O)[nH]1 [Compound A-47] | 6.00 to 6.52 |  |
| COCCNCc1cc(C(=O)NCc2c(C)cc(C)[nH]c2=O)c2cnn(C3CCCC3)c2c1 [Compound D-73] | 5.52 to 6.00 |  |
| Cc1cc(C)c(CNC(=O)c2cc(-c3ccc(CN4CCNC(=O)C4)cc3)cc3c2cnn3C2CCCC2)c(=O)[nH]1 [Compound C-25] | > 6.52 |  |
| Cc1cc(C)c(CNC(=O)c2cc(C3CCN(C(=O)C4CNC4)CC3)nc3c2cnn3C(C)C)c(=O)[nH]1 [Compound B-77] | 6.00 to 6.52 |  |
| Cc1cc(COCCCN(C)C)c(CNC(=O)c2cc(Br)cc3c2cnn3C2CCCC2)c(=O)[nH]1 [Compound D-90] | 4.30 to 5.00 |  |
| Cc1cc(C)c(CNC(=O)c2cc(Br)cc3c2cnn3C2CN(C(=O)OC(C)(C)C)C2)c(=O)[nH]1 [Compound D-34] | 5.52 to 6.00 |  |
| Cc1cc(C)c(CNC(=O)c2cc(-c3ccc(N4CCNCC4)nc3)nc3c2cnn3C(C)C)c(=O)[nH]1 [Compound A-10, N-((4,6-dimethyl-2-oxo-1,2-dihydropyridin-3-yl)methyl)-1-isopropyl-6-(6-(piperazin-1-yl)pyridin-3-yl)-1H-pyrazolo[3,4-b]pyridine-4-carboxamide] | > 6.52 |  |
| Cc1cc(C)c(CNC(=O)c2cc(Br)cc3c2cnn3C2CCN(C(=O)C(C)(C)C)C2)c(=O)[nH]1 [Compound D-33] | > 6.52 |  |

| SMILES | pIC50 [1] | pIC50 |
| --- | --- | --- |
| Cc1cc(C)c(CNC(=O)c2cc(N3CCCCC3)nc3c2cnn3C(C)C)c(=O)[nH]1 [Compound B-115] | 5.52 to 6.00 |  |
| Cc1cc(C)c(CNC(=O)c2cc(OC(C)C)nc3c2cnn3C(C)C)c(=O)[nH]1 [Compound B-104] | 5.52 to 6.00 |  |
| Cc1cc(C)c(CNC(=O)c2cc(N3CCNCC3)nc3c2cnn3C(C)C)c(=O)[nH]1 [Compound B-92] | 5.52 to 6.00 |  |
| Cc1cc(C)c(CNC(=O)c2cccc3c2cnn3C2CCCC2)c(=O)[nH]1 [Compound D-66] | 6.00 to 6.52 |  |
| CNCCN1CC=C(c2cc(C(=O)NCc3c(C)cc(C)[nH]c3=O)c3cnn(C4CCCC4)c3c2)CC1 [Compound D-48] | > 6.52 |  |
| Cc1cc(C)c(CNC(=O)c2cc(C3CC(C)(C)NC(C)(C)C3)nc3c2cnn3C2COC2)c(=O)[nH]1 [Compound B-47] | 6.00 to 6.52 |  |
| Cc1cc(C)c(CNC(=O)c2cc(N3CCC(N4CCN(S(C)(=O)=O)CC4)CC3)nc3c2cnn3C(C)C)c(=O)[nH]1 [Compound B-101] | 5.52 to 6.00 |  |
| Cc1cc(C)c(CNC(=O)c2cc(-c3cnn(C)c3)nc3c2cnn3C(C)C)c(=O)[nH]1 [Compound A-48] | 5.52 to 6.00 |  |
| C=C(Cn1ncc2c(C(=O)NCc3c(C)cc(C)[nH]c3=O)cc(C3=CC(C)(C)NC(C)(C)C3)nc21)C(=O)OC [Compound B-120] | 5.52 to 6.00 |  |
| Cc1cc(C)c(CNC(=O)c2cc(-c3ccccc3CNC(=O)OC(C)(C)C)nc3c2cnn3C(C)C)c(=O)[nH]1 [Compound A-98] | 4.30 to 5.00 |  |
| Cc1cc(C)c(CNC(=O)c2cc(C=O)nc3c2cnn3C(C)C)c(=O)[nH]1 [Compound B-22, N-((4,6-dimethyl-2-oxo-1,2-dihydropyridin-3-yl)methyl)-6-formyl-1-isopropyl-1H-pyrazolo[3,4-b]pyridine-4-carboxamide] | > 6.52 |  |
| Cc1cc(C)c(CNC(=O)c2cc(N3CCC(N)CC3)nc3c2cnn3C(C)C)c(=O)[nH]1 [Compound B-110] | 5.52 to 6.00 |  |
| CNCCCOc1cccc(-c2cc(C(=O)NCc3c(C)cc(C)[nH]c3=O)c3cnn(C4CCCC4)c3c2)c1 [Compound C-10, 1-cyclopentyl-N-((4,6-dimethyl-2-oxo-1,2-dihydropyridin-3-yl)methyl)-6-(3-(3-(methylamino)propoxy)phenyl)-1H-indazole-4-carboxamide] | > 6.52 |  |
| Cc1cc(C)c(CNC(=O)c2cc(CN(C)CCCN(C)C)cc3c2cnn3C2CCCC2)c(=O)[nH]1 [Compound D-67] | 6.00 to 6.52 |  |
| Cc1cc(C)c(CNC(=O)c2cc(-c3cccnc3N3CCN(C)CC3)nc3c2cnn3C(C)C)c(=O)[nH]1 [Compound A-63] | 5.52 to 6.00 |  |
| Cc1cc(C)c(CNC(=O)c2cc(CN3CCOCC3)cc3c2cnn3C2CCCC2)c(=O)[nH]1 [Compound D-64] | 6.00 to 6.52 |  |
| Cc1cc(C)c(CNC(=O)c2cc(COCCCN(C)C)cc3c2cnn3C2CCCC2)c(=O)[nH]1 [Compound D-87] | 5.00 to 5.52 |  |
| Cc1cc(C)c(CNC(=O)c2cc(CNCCO)cc3c2cnn3C2CCCC2)c(=O)[nH]1 [Compound D-77] | 5.52 to 6.00 |  |
| Cc1cc(C)c(CNC(=O)c2cc(C(=O)N3CCC(N4CCN(C)CC4)CC3)nc3c2cnn3C(C)C)c(=O)[nH]1 [Compound B-128] | 5.00 to 5.52 |  |
| Cc1cc(CN(C)C)c(CNC(=O)c2cc(-c3ccc(CN4CCOCC4)cc3)cc3c2cnn3C2CCCC2)c(=O)[nH]1 [Compound C-26] | > 6.52 |  |
| CCc1c(C)[nH]c(=O)c(CNC(=O)c2cc(C3CC(C)(C)NC(C)(C)C3)nc3c2cnn3C(C)C)c1C [Compound B-137] | 5.00 to 5.52 |  |
| Cc1cc(C)c(CNC(=O)c2cc(Br)cc3c2cnn3C2CN(C(=O)C(C)(C)C)C2)c(=O)[nH]1 [Compound D-36] | 5.52 to 6.00 |  |
